# According to US20240082416A1, “AMATOXIN ANALOGS AND USES THEREOF” (THE UNIVERSITY OF BRITISH COLUMBIA, priority 2020, published 2024):
# “And” between values parts separate entries of the source, which are not always exact repeats. Equal values may be shown once. Starred links: 1 amine or outer side, 2 acyl side, 3 side chain; linkers in the order of their positions; H or OH if unused. Positions of bridges follow the written chain, without caps; N, C: chain ends. Non-standard residues stand in square brackets, D forms with d. Residues, ends and D or L forms follow the SMILES beside them. Trp(2-yl) = O=C([C@H](Cc1c([*:3])[nH]c2ccccc12)N[*:1])[*:2]; X2 = [N-]=[N+]=N[C@@H]1C[C@@H](C(=O)[*:2])N([*:1])C1; Ile(4R-OH,5-OH) = C[C@H]([C@H](N)C(=O)O)[C@@H](O)CO
# What was measured:
# [1] = target: RNA-polymerase II (Homo sapiens, UniProt P24928); conditions: cited from earlier work
# [2] = Cell viability assay (BrdU incorporation) on HEK293-OATP1B3 cells; format: cell-based, human; conditions: human, HEK293-OATP1B3 cells; for viability at 96 h, 1 µM: highest used concentration of 1 μM
# Method: (§1) . HEK293 and HEK-OATP1B3 cells were plated at 2.5×10^3 cells/well in a 1:1 mixture of Ham's F12 with DMEM containing 10% charcoal-stripped fetal calf serum (FCS) onto poly-D-lysine-coated 96-well plates and grown for 24 hours. Subsequently, cells were incubated with amanitin analogs at 8 different concentrations (1×10^−6 M to 1.28×10^−11 M, serial 1:5 dilutions). Following 96 h of drug exposure, cell viability was determined by a BrdU incorporation assay (Cell Proliferation ELISA, BrdU, Roche) and chemiluminescence was measured using a FLUOstar Optima plate reader (BMG LABtech). Data analysis was performed with GraphPad Prism 8 (GraphPad Software, Inc., La Jolla, CA) software to plot curve fits.
# [3] = system: HEK293-OATP1B3 cells; experiment: as above; format: cell-based, human; conditions: HEK293-OATP1B3 vs HEK293
# Method: as §1
# [4] = target: eukaryotic RNA polymerase II (Pol II) (Homo sapiens, UniProt P24928); conditions: literature; cited from earlier work
# [5] = system: CHO cells; experiment: Viability assay against CHO cells (MTT colorimetric assay); format: cell-based, Chinese hamster; conditions: for % viable cells: 72 h, replicates n = 1, 2, 3, listed as N3-Pro-amanitin (3)
# Method: (§2) (f) Cell culture: Cells were cultured in Minimum Essential Medium Eagle—Alpha Modification (α-MEM) or […] Dulbecco's Modified Eagle Medium (DMEM), purchased from Gibco. […] All cell culture plastic ware was obtained from Coming or Falcon. Cells were cultured at 37° C. in a humidified chamber with 5% CO2. When used in cell culture, DMSO was purified by filtration through a […] filter. All experiments were carried out in a laminar flow culture cabinet, unless otherwise noted.
# (§3) Immortalized CHO cells had been stored in liquid nitrogen. To revive cells, a 1-mL tube of the frozen cells in medium containing 10% DMSO was warmed in a 30° C. water bath and diluted with 9 mL of fresh media. Media contained 10% FBS and 100 U/mL penicillin and […] streptomycin, unless otherwise indicated. The cells were incubated in a T-25 flask at 37° C. at 5% CO2. After 24 hours, the medium was aspirated and replaced with fresh medium. When cells reached a level of 90-100% confluence, they were sub-cultured. […] Once the cells were detached from the tissue culture flask, 3-5 mL media was added to quench the trypsin and the mixture was transferred to a 10 mL centrifuge tube. The mixture was centrifuged for 5 min at […], and the supernatant was discarded. The cells were suspended in fresh medium, diluted as required, and transferred to a new culture flask.
# (§4) To assay cell viability, a nearly confluent tissue culture flask was trypsinized, and the cells were counted following treatment with Trypan blue, using a hemocytometer. The cells were then diluted to the appropriate stock concentrations in fresh medium and transferred in 100 μL to a 96-well plate using a multi-channel pipette. The number of cells plated varied from experiment to experiment. These were incubated at 37° C. and 5% CO2 for a 24-hour period to allow for adherence. The medium was aspirated, and fresh medium was added, which contained the desired additives in DMSO. The cells were then re-incubated for 72 h. At the completion of the experiment, a 100 μL aliquot of 25 mg/mL MTT in phosphate-buffered saline (PBS) was added to each well. The plate was incubated three hours further to allow for the formation of the formazan product in viable cells. The media was carefully aspirated, and the purple product was solubilized in DMSO. […] Data was processed in Microsoft Excel and GraphPad Prism. Experiments were performed in triplicates unless otherwise noted, and the error bars were calculated as the standard error of the mean.
# (§5) Each cell line was plated in a 96-well plate, with 100 μL of the stock solution per well (5000 cells per well) and incubated for 24 hours. […] The cells were incubated for 72 hours, at which point viability was assessed as described.
# [6] = system: HEK293 cells; format: cell-based, human; conditions: wt-HEK293 cells lacking OATP1B3; 96 h
# Method: as §1
# [7] = target: T1, Pol II (Homo sapiens, UniProt P24928); experiment: In vitro transcription runoff assay using HeLaScribe nuclear extract; format: biochemical; conditions: for Transcription activity E (%): mean ± standard deviation
# T1 construct: HeLaScribe® nuclear extract containing Pol II and all other transcription factors; purchased Promega; host or cells: HeLa nuclear extract (endogenous protein)
# Text: (h) In vitro transcription assay of synthetic amanitins containing analogs of Hyp: Primers were purchased from IDT via standard phosphoramidite chemistry. dNTP and rNTP were purchased from Thermofisher. GoTaq polymerase and HeLaScribe*Nuclear Extract in vitro Transcription System was purchased from Promega. Taq polymerase was purchased from NEB. [^32P] α-dGTP (3000 Ci/mmol 10 mCi/ml EasyTide) and [^32P] α-GTP (3000 Ci/mmol 10 mCi/ml EasyTide) were purchased from Perkin Elmer. QIAquick PCR purifcation kit was purchased from Qiagen. AcGFP1-N1 was a gift (Addgene plasmid #54705; http://n2t.net/addgene:54705; RRID:Addgene_54705). DNA Primer sequences were:
# The DNA template for transcription runoff was synthesized by PCR with template pAcGFP-N1, and primers P1 and P2. To a final volume of 20 μL, 1 x GoTaq Buffer, 250 μM of each dNTP, 500 nM of each primers P1 and P2, […] pAcGFP-N1 and 0.05 U/μL GoTaq were employed to thermocycle for 30 cycles (30 s at 95° C., 30 s at 50° C. and 60 s at 72° C., Bio-Rad). A 1 μL aliquot of the amplified solution was resolved with 6×DNA loading dye in a 1% agarose gel containing […] and then visualized using GelDoc XR imager (Bio-Rad). Purification was completed via QIAquick PCR purification kit (Qiagen). The radioactive chromatographic standard was synthesized by PCR with template pAcGFP-N1, and primers P3 and P4. To a final volume of 50 μL, 1 x Thermopol Buffer, 200 μM of each dNTP, 500 nM of each primers P3 and P4, 10 pg/μL pAcGFP-N1 and 0.02 U/μL Vent polymerase, 1 μL [^32P] α-dGTP were employed to thermocycle for 30 cycles (30 s at 95° C., 30 s at 62° C. and 30 s at 72° C., Bio-Rad). A 1 μL aliquot of the amplified solution was resolved with 6×DNA loading dye in 8% denaturing PAGE and then visualized by autoradiography via the Typhoon 9200 imager (Molecular namics-Amersham-GE). Purification was completed via QIAquick PCR purification kit (Qiagen). The transcription runoff assay was modified from HeLaScribe® Nuclear Extract in vitro Transcription System (Promega). […]. The pellet was resolved by 8% denaturing PAGE and then visualized by autoradiography via the Typhoon 9200 imager (Molecular dynamics-Amersham-GE). Dosimetry was calculated by ImageJ, and the 3 parameter logistic fit was completed by Origin 2019 (OriginLab). […]
# All data were presented in mean±standard deviation (n=3).
# [8] = system: CHO cells; conditions: background statement, read-out: Ki (CHO cells readily killed); cited from earlier work
# [9] = Viability assay against CHO cells (MTT colorimetric assay); format: cell-based, Chinese hamster; conditions: Chinese hamster, CHO cells, 72 h, replicates n = 1, 2, 3, read-out: % viable cells
# Method: as §2, §3, §4, §5
molecule,measurement,setting,value
amanitin,Kd,[1],3 nM
"CC[C@H](C)[C@@H]1NC(=O)CNC(=O)[C@@H]2Cc3c([nH]c4cc(O)ccc34)[S@+]([O-])C[C@H](NC(=O)CNC1=O)C(=O)N[C@@H](CC(=O)O)C(=O)N1C[C@H](O)C[C@H]1C(=O)N[C@@H]([C@@H](C)[C@@H](O)CO)C(=O)N2 [β-amanitin, reference compound]",IC50 at 96 h,"[2]; HEK293-OATP1B3 cells (OATP1B3 overexpressing HEK293), 96 h",8.5 ± 1.1 nM
same,"viability at 96 h, 1 µM",[2]; HEK293-OATP1B3 cells (OATP1B3 overexpressing HEK293),0%
same,fold increase in toxicity / reduction of the IC50 value on HEK293-OATP1B3 relative to HEK293 cells,[3],15 fold
proamanullin,Ki,[4],5000 to 20000 nM
"α-amanitin [Compound 1, reference compound]",IC50,"[5]; CHO cells, MTT assay, control",350 to 1100 nM
same,IC50,[6],130 ± 80 nM
same,Transcription activity E (%),[7]; 1 nM,85.0 ± 2.4%
same,Transcription activity E (%),[7]; 3 nM,69.5 ± 9.4%
same,Transcription activity E (%),[7]; 10 nM,48.1 ± 9.8%
same,Transcription activity E (%),[7]; 30 nM,22.9 ± 2.6%
same,Transcription activity E (%),[7]; 100 nM,9.5 ± 4.1%
same,Ki,[8],~500 nM
amanullin,Ki,[4],10 to 40 nM
"CC[C@H](C)[C@@H]1NC(=O)CNC(=O)[C@@H]2Cc3c([nH]c4ccccc34)SC[C@H](NC(=O)CNC1=O)C(=O)N[C@@H](CC(N)=O)C(=O)N1C[C@H](N=[N+]=[N-])C[C@H]1C(=O)N[C@@H]([C@@H](C)[C@@H](O)CO)C(=O)N2 [Compound 3, N3-Pro-amanitin] (cyclo(CN[X2][Ile(4R-OH,5-OH)][Trp(2-yl)]GIG); thioether 1-5)","viability at 72 h, 1e-05 M",[9]; 1e-005 M,107%
same,"viability at 72 h, 1.25e-06 M",[9]; 1.25e-006 M,105%
same,"viability at 72 h, 1.56e-07 M",[9]; 1.56e-007 M,101%
same,"viability at 72 h, 2e-05 M",[9]; 2e-005 M,112%
same,"viability at 72 h, 2.5e-06 M",[9]; 2.5e-006 M,104%
same,"viability at 72 h, 3.125e-07 M",[9]; 3.125e-007 M,99%
same,"viability at 72 h, 5e-06 M",[9]; 5e-006 M,104%
same,"viability at 72 h, 6.25e-07 M",[9]; 6.25e-007 M,101%
same,% viable cells,[5]; 1e-005 M,100% and 94%
same,% viable cells,[5]; 1.25e-006 M,88% and 89%
same,% viable cells,[5]; 1.56e-007 M,89% and 88%
same,% viable cells,[5]; 2.5e-006 M,95% and 88%
same,% viable cells,[5]; 3.125e-007 M,89% and 91%
same,% viable cells,[5]; 5e-006 M,88% and 89%
same,% viable cells,[5]; 6.25e-007 M,93% and 87%
same,"viability at 96 h, 1 µM",[2]; HEK293 cells overexpressing OATP1B3 (HEK293-OATP1B3),68%
same,IC50,"[7]; IC50 (nM), Table 12, n = 3, high values estimated from activity at [I]=1.0 μM",> 1000 nM
same,inhibitory effects,[7]; up to 1 μM concentrations,did not exhibit any noticeable inhibitory effects
